The text below walks through data of paper PMC4689457, “Immucillins ImmA and ImmH Are Effective and Non-toxic in the Treatment of Experimental Visceral Leishmaniasis” (PLoS Neglected Tropical Diseases, 2015).

Data set [1] has as its system L. (L.) infantum chagasi. The data set is described as follows: Liver parasite load (LDU) in infected BALB/c mice after chemotherapy. Particulars: 2.5 mg/kg/day ip 5 days; day 30 after complete treatment. It counts as in vivo. On the procedure:
(§1) Female BALB/c mice, 8 week old, were infected through the caudal vein with 10^7 amastigotes of L. (L.) infantum (strain IOC-L 3324) isolated from infected hamsters spleens. After 15 days of infection, mice (n = 5 per treatment) were injected by the intraperitoneal route (ip) with daily doses for 5 days of 2.5 mg/Kg of IA, IH, SMIH [30, 31] or the control drug Glucantime (Sanofi Aventis, batch 0929280802) (Fig 1). Immucillins were synthesized at the Ferrier Research Institute, Victoria University of Wellington, New Zealand. Uninfected and infected mice treated only with saline were included as controls for the treatment cohorts. On days 1, 15, and 30 after complete treatment, the animals were euthanized with CO2. Blood samples were collected for sera analysis and weight of spleens, livers and total body were determined. Spleens were also used for determination of cytokine expression. The parasite load was evaluated in Giemsa-stained liver smears and expressed in LDU values (Leishman Donovan units of Stauber = number of amastigotes per 1000 liver cell nuclei/mg of liver weight). The levels of urea, creatinine, glutamate pyruvate transaminase (GPT) and glutamate oxaloacetate transaminase ([…]) were assessed in plasma by standard clinical laboratory procedures using a Wiener lab Metrolab 2300 (Laborlife Análises Clínicas laboratory, Rio de Janeiro).

For data set [2], the system named is L. (L.) infantum chagasi infection. The data set is described as follows: Survival, body and organ weights of infected treated BALB/c mice. Conditions: end of the experiment. It counts as in vivo. On the procedure: as §1
Data set [3] deals with CD4+, CD8+ and CD19+ lymphocytes. The data set is described as follows: CD4+, CD8+ and CD19+ lymphocyte frequencies by flow cytometry in splenocytes of uninfected treated mice. The class given is cell-based, BALB/c mice. As for the experimental part: Female BALB/c mice, 8 weeks old, were injected intraperitoneally with daily doses 2.5 mg/Kg of IA, IH, SMIH or Glucantime during five days and euthanized on day 1, 15 and 30 after complete treatment. For evaluation of the T cell response, spleens were removed and splenocytes were incubated for 24 h in vitro with the lysate of 10^6 stationary phase promastigotes of L. (L.) infantum chagasi (MHOM/BR/1974/PP75), with 25 μg/mL NH36, at 37°C and 5% CO2, during 72 h for the assay of the cytokine expression in the supernatants. Additionally, splenocytes from uninfected BALB/c mice either untreated or previously treated with IA, IH, SMIH or Glucantime were incubated in vitro with 10 μg/mL of each respective drug. For flow cytometry analysis (FACS analysis), splenocytes were incubated for 24 h with the antigens or drugs, labeled with anti-CD4FITC (clone GK1.5), anti-CD8FITC (clone 53–6.7) monoclonal antibodies (R&D systems, Inc) or with rat anti-mouse CD19-PerCP-Cy5.5 and 100,000 lymphocyte counts were acquired using a BD FACScalibur apparatus. Data was analyzed using the Flow-Jo program. The secretion of cytokines was evaluated in the supernatants of splenocytes by an ELISA assay.
On the technique in general: A flow cytometer gives signals particle by particle.

For data set [4], the system named is L. (L.) infantum chagasi. The data set is described as follows: Liver parasite load in infected CB hamsters after chemotherapy. The class given is in vivo, CB golden hamster. Conditions: 2.5 mg/kg/day ip 5 days, 10 days after complete treatment. As for the experimental part: (§2) The efficacy of immucillins was also assayed in the CB golden hamster susceptible model. Females, 8 weeks old, were infected through the intracardiac route with 2 x 10^7 amastigotes of L. (L.) infantum chagasi (strain IOC-L 3324) isolated from infected hamsters spleens. Thirty days after infection, the animals were treated with 2.5 mg/kg daily doses of Glucantime, IA, IH or SMIH, through the ip route, for five days. Ten days after complete treatment the animals were euthanized, their parasite load was determined in livers and the renal function evaluated in sera samples as described above.

A short description of data set [5]: Body weight and renal/hepatic markers in sera of infected treated hamsters. The class given is in vivo, CB golden hamster. Conditions: infected hamsters. On the procedure: as §2
The subject of data set [6] is L. (L.) infantum chagasi promastigotes. Details: method as in PMID 25909893. Conditions: cited from earlier work.
Data set [7] has as its system L. (L.) amazonensis promastigotes. Details: method as in PMID 25909893. Conditions: cited from earlier work.
The subject of data set [8] is L. (L.) infantum chagasi amastigotes. Details: method as in PMID 25909893. Particulars: 10 μM; cited from earlier work.
Another data set deals with macrophage. Details: method as in PMID 25909893. Particulars: 10 μM; cited from earlier work.
Another data set relates to blood PNP. Details: method as in PMID 19170524. Particulars: mice; cited from earlier work.

With `O=c1[nH]cnc2c(CNC(CO)CO)c[nH]c12` [SMIH], in the data set with L. (L.) infantum chagasi [1], the “reduction of liver parasite load (LDU)” value is listed as 85%. The survival in data set [2] is reported as 100%. In [3], the “CD4+ T cell frequencies (in words)” value is listed as “lower CD4+ T cell frequencies” and the “CD19 B cell frequencies enhanced by previous treatment” value is reported as ~ 30%. Moreover, in [3] (day 1 after treatment), the “CD8+ T cell frequencies” value is recorded as “diminished”. In the data set with L. (L.) infantum chagasi [4], the “liver parasite load reduction” value is listed as “no cure”. For the same compound, the “reduction of blood urea levels” value in [5] was ~ 50%. Moreover, the “concentrations inhibiting growth of promastigotes in vitro” value in data set [6] is recorded as “nanomolar to micromolar”. Also, in data set [7], the “concentrations inhibiting growth of promastigotes in vitro” value is listed as “nanomolar to micromolar”. Also, the “inhibition of intracellular replication of amastigotes” value in [8] is recorded as 95%. Besides, in the data set with macrophage, the “damage to macrophage viability” value is given as “no apparent damage”. The oral availability entry with blood PNP is “orally available”.
